{"source": "patent US11000537B2", "about": "“Composition comprising novel ginsenoside” (AMOREPACIFIC CORPORATION, priority 2018, dated 2021)", "format_in_all_cases": "cell-based", "key": {"[1]": {"system": "aP2 (Adipocyte protein 2)", "assay": "aP2 adipocyte marker gene expression (qPCR)", "experimental": "(§1) The adipocyte cell 3T3-L1 purchased from the International Center for Biological Resources (ATCC) were placed in Dulbecco's Modified Eagle's Medium (Sigma) to which 10% fetal bovine serum (Hyclone) and 1% penicillin/streptomycin (Sigma) were added, and cultured in a 5% CO2 incubator. In order to differentiate preadipocytes into adipocytes, the cells were filled in a culture plate and cultured. After 48 hours, the cells were replaced with Dulbecco's modified eagle medium (DMEM) to which 10% of fetal bovine serum (Hyclone), 0.5 mM of 3-isobutyl-1-methylxanthine (Sigma), 1 μM of dexamethasone (Sigma), 5 μg/ml of insulin (Sigma), 1% of penicillin/streptomycin (Sigma) were added and further cultured for 48 hours. During 48 hours of culture, seven types of ginsenoside reagents (GS #01-GS #06, GS #10) extracted from Ginseng seeds were treated at 10 μM each to affect adipocyte differentiation. […]\n(§2) After the differentiation of adipocytes in the same manner as above, the expressions of PPARγ (Peroxisome proliferator-activated receptor gamma), aP2 (Adipocyte protein 2) and CD36 were observed as adipocyte marker genes. […] Bio-Rad's CFX96 real-time quantitative PCR (qPCR) instrument was used to quantify the expression levels of each gene. […]"}, "pancreatic lipase": {"system": "pancreatic lipase", "assay": "pancreatic lipase activity inhibition (Pancreatic Lipase Activity Assay Kit)", "experimental": "The hepatocyte cell line HepG2 purchased from the International Center for Biological Resources (ATCC) were placed in Dulbecco's Modified Eagle's Medium (Sigma) to which 10% fetal bovine serum (Hyclone) and 1% penicillin/streptomycin (Sigma) were added, and cultured in a 5% CO2 incubator. As a positive control for the cells, Xenical (Sigma), which are used as pancreatic lipase inhibitors and anti-obesity therapeutic agents, and seven types of ginsenosides (GS #01-GS #06, GS #10; 10 μM each) extracted from Ginseng seed were treated for 1 hour. In addition, Pancreatic Lipase Activity Assay Kit (Abcam) was used to observe the inhibition of each lipase activity."}, "[2]": {"system": "ACC (acetyl-CoA carboxylase)", "assay": "ACC gene expression in HepG2 (qPCR)", "conditions": "24 hours", "experimental": "(§3) The hepatocyte cell line HepG2 purchased from the International Center for Biological Resources (ATCC) were placed in Dulbecco's Modified Eagle's Medium (Sigma) to which 10% fetal bovine serum (Hyclone) and 1% penicillin/streptomycin (Sigma) were added, and cultured in a 5% CO2 incubator. As a positive control, fenofibrate (FF, Sigma), which is used as an antihyperlipidemic drug, was used, and 7 kinds of ginsenosides (GS #01-GS #06, GS #10; 10 μM each) extracted from Ginseng seed were used for the experiment. After 24 hours of treatment, cells were collected, RNA was extracted using Trizol™ reagent (Thermo Fisher Scientific), and cDNA was synthesized using RevertAid™ 1st strand cDNA synthesis kit (Thermo Fisher Scientific). Bio-Rad's CFX96 real-time quantitative PCR (qPCR) instrument was used to observe the expression of the genes SREBP1c (sterol-regulatory element binding protein 1c), ACC (acetyl-CoA carboxylase) and FAS (Fatty acid synthase), which induces fat synthesis or accumulation."}, "[3]": {"system": "PPARγ (Peroxisome proliferator-activated receptor gamma)", "assay": "PPARγ adipocyte marker gene expression (qPCR)", "experimental": "as §1, §2"}, "[4]": {"system": "SREBP1c (sterol-regulatory element binding protein 1c)", "assay": "SREBP1c gene expression in HepG2 (qPCR)", "conditions": "24 hours", "experimental": "as §3, with “As a positive control, fenofibrate (FF, Sigma), which is used as an antihyperlipidemic drug, was used, and 7 kinds of ginsenosides (GS #01-GS #06, GS #10; 10 μM each) extracted from Ginseng seed were used for the experiment.” left out"}}, "data": [{"smiles": "CC1(C)C(=O)CC[C@@]2(C)C1[C@@H](O[C@H]1OC(CO)[C@H](O)C(O)C1O[C@H]1OC(CO)[C@H](O)C(O)C1O)C[C@]1(C)C2C[C@@H](O)C2C([C@]3(C)CC[C@H](C(C)(C)O)O3)CC[C@]21C", "note": "(stereo partly drawn) [GS #10, (20S,24R)-6-O-β-D-glucopyranosyl(1→2)-β-D-glucopyranoside-dammar-3-one-20,24-epoxy-6a,12b,25-triol]", "values": [{"measurement": "adipocyte differentiation inhibition, aP2 gene expression", "setting": "[1]; 1 μM and 10 μM, compared with Rg1, Rg3, Rb1, FIG. 40", "value": "far superior in adipocyte differentiation inhibition"}, {"measurement": "adipocyte differentiation inhibition, aP2 gene expression", "setting": "[1]; 10 μM, FIG. 36", "value": "more effective in inhibiting the adipocyte differentiation"}, {"measurement": "lipase activity inhibitory effect relative to that of the conventional ginsenoside", "setting": "pancreatic lipase; 10 μM, 1 hour, FIG. 22", "value": "≥ 2", "unit": "times"}, {"measurement": "pancreatic lipase activity inhibitory effect", "setting": "pancreatic lipase; 10 μM, 1 hour, FIG. 22", "value": "the best"}, {"measurement": "pancreatic lipase activity inhibition", "setting": "pancreatic lipase; 1, 10 μM, compared with Rg1, Rg3, Rb1, FIG. 27", "value": "far superior in lipid metabolism inhibitory effect"}, {"measurement": "ACC expression inhibitory effect", "setting": "[2]; 10 μM, HepG2, FIG. 19", "value": "significantly higher expression inhibitory effect"}, {"measurement": "ACC expression inhibitory effect", "setting": "[2]; 1, 10 μM, compared with Rg1, Rg3, Rb1, FIG. 24", "value": "far superior in lipid metabolism inhibitory effect"}, {"measurement": "adipocyte differentiation inhibition, PPARγ gene expression", "setting": "[3]; 1 μM and 10 μM, compared with Rg1, Rg3, Rb1, FIG. 39", "value": "far superior in adipocyte differentiation inhibition"}, {"measurement": "adipocyte differentiation inhibition, PPARγ gene expression", "setting": "[3]; 10 μM, FIG. 35", "value": "more effective in inhibiting the adipocyte differentiation"}, {"measurement": "SREBP1c expression inhibitory effect", "setting": "[4]; 10 μM, HepG2, FIG. 18", "value": "significantly higher expression inhibitory effect"}, {"measurement": "SREBP1c expression inhibitory effect", "setting": "[4]; 1, 10 μM, compared with Rg1, Rg3, Rb1, FIG. 23", "value": "far superior in lipid metabolism inhibitory effect"}]}]}
